Measurements taken from patent US9492494B2, “Oral composition” (Kyowa Hakko Bio Co., Ltd., priority 2007, dated 2016).

Tested on: soluble collagen and insoluble collagen of abdominal skin
Assay: Oral administration test in rats: L-hydroxyproline in soluble and insoluble collagen of abdominal skin (Experimental Example 2)
Assay type: in vivo, F344/DuCrlCrlj rats
Details: oral 10 mL/kg once a day for 12 days, abdominal skin on 13th day, soluble plus insoluble collagen, mean±standard deviation, 4 rats per group
Protocol: To the rats of the administration groups 7-11 were each administered with compositions 7-11 obtained by dissolving collagen peptide and L-hydroxyproline in purified water to the contents shown in Table 3 at 10 mL/kg. The rats of the control administration group 12 were administered with purified water at 10 mL/kg.
On the 13th day from the start of the administration test, the abdomen was shaved under anesthesia by intraperitoneal administration of pentobarbital, and the abdominal skin was collected. […] The values are shown by mean±standard deviation.

## O=C(O)[C@@H]1C[C@@H](O)CN1 [composition 11, trans-4-hydroxy-L-proline]
  L-hydroxyproline amount/wet weight of skin: 10.66 ± 1.69 mg/g
